Measurements published in patent US6727253B2, “Treatment of accidental extravasation of anthracyclines” (Antianthra APS, priority 1999, dated 2004).
Where two headings read alike, the source gives them in different places.

How the values were obtained:
[1] = tested on: wound after daunorubicin SC in swine; test: Pilot study on swine, daunorubicin SC; type: in vivo; settings: 1 ml daunorubicin SC
Description: (§1) A danish porker weighting approximately 30 kg was used. The animals were fully anesthesized and artificially ventilated during SC injection of 1 ml of anthracycline.

[2] = tested on: wound after doxorubicin SC in swine; test: Pilot study on swine, doxorubicin SC; type: in vivo; settings: 3 mg doxorubicin SC, ICRF-187 25 mg/kg IV at t=0
Description: as §1

[3] = tested on: SC daunorubicin induced wounds in mice; settings: for AUC / DW / FW / TTW: Table A
Description: The mice were euthanized after healing of all wounds.
The effect of various doses of ICRF-187 was investigated in Example 3.
Comparison of two concentrations of sc daunorubicin were compared with and without simultaneous treatment with ICRF-187 250 mg/kg.
ICRF-187 was administered at the same time as daunorubicin, 3 hours after, and 6 hours after, respectively. Saline served as control. The dose of daunorubicin was 3 mg/kg so and ICRF-187 was administered IP in a 250 mg/kg solution. Twenty-eight mice were used. The results are depicted in data sheet #6 and the mean AUCs are shown graphically in FIG. 5.
100 mg/kg ICRF-187 was injected into the subcutaneous papule produced by injected daunorubicin. This treatment was compared to intralesional saline control, IP saline control, and IP treatment with ICRF-187.
[…]. Seven experiments (n=6, 7, 7, 9, 9, 9, and 9) with 3 mg/kg daunorubicin SC plus saline IP at t=0 and seven experiments (n=6, 7, 7, 9, 9, 8, and 9) with 3 mg/kg daunorubicin SC plus 250 mg/kg ICRF-187 IP at t=0tin two experiments (n=9 and 4) the ICRF-187 doses were 62,5 mg/kg and 375 mg/kg IP, respectively, in two (n=7 and 9) the dose was 125 mg/kg. ICRF-187 250 mg/kg was administered IV in one (n=9).

[4] = Example 3, daunorubicin 3 mg/kg sc + ICRF-187 250 mg/kg IP
[5] = Example 3, daunorubicin 3 mg/kg sc + ICRF-187 375 mg/kg IP
[6] = Example 4, daunorubicin 1 mg/kg sc + ICRF-187 250 mg/kg IP simultaneous
[7] = Example 4, daunorubicin 3 mg/kg sc + ICRF-187 250 mg/kg IP simultaneous
[8] = Example 5, daunorubicin 1 mg/kg sc + ICRF-187 250 mg/kg IP
[9] = Example 5, daunorubicin 3 mg/kg sc + ICRF-187 250 mg/kg IP
[10] = Example 6, daunorubicin 3 mg/kg sc + ICRF-187 250 mg/kg IP 3 hours after daunorubicin
[11] = Example 6, daunorubicin 3 mg/kg sc + ICRF-187 250 mg/kg IP 6 hours after daunorubicin
[12] = Example 6, daunorubicin 3 mg/kg sc + ICRF-187 250 mg/kg IP at the same time
[13] = Example 7, daunorubicin 3 mg/kg sc + 0.05 ml ICRF-187 100 mg/kg IL
[14] = Example 7, daunorubicin 3 mg/kg sc + ICRF-187 250 mg/kg IP
[15] = daunorubicin 1 mg/kg SC + DEX 250 mg/kg IP at t=0, pooled data
[16] = daunorubicin 3 mg/kg SC + DEX 125 mg/kg IP at t=0, +3h and +6h
[17] = daunorubicin 3 mg/kg SC + DEX 125 mg/kg IP at t=0, pooled data
[18] = daunorubicin 3 mg/kg SC + DEX 250 mg/kg IP at t=0, pooled data
[19] = daunorubicin 3 mg/kg SC + DEX 250 mg/kg IP at t=0, pooled data, listed as DEX
[20] = daunorubicin 3 mg/kg SC + DEX 250 mg/kg IP at t=+3h
[21] = daunorubicin 3 mg/kg SC + DEX 250 mg/kg IP at t=+6h
[22] = daunorubicin 3 mg/kg SC + DEX 250 mg/kg IP day 0, 1, and 2
[23] = daunorubicin 3 mg/kg SC + DEX 250 mg/kg IV at t=0
[24] = daunorubicin 3 mg/kg SC + DEX 375 mg/kg IP at t=0
[25] = daunorubicin 3 mg/kg SC + DEX 62,5 mg/kg IP at t=0
[26] = daunorubicin 3 mg/kg SC + DEX 62,5 mg/kg IP at t=0, +3h and +6h
[27] = pooled, daunorubicin 3 mg/kg SC, ICRF-187 250 mg/kg IP at t=0, p<0.0001

C[C@@H](CN1CC(=O)NC(=O)C1)N1CC(=O)NC(=O)C1 [ICRF-187, (+)-1,2-bis(3,5-dioxopiperazinyl-1-yl)propane]
wound appearance ([1]; ICRF-187 25 mg/kg IV daily for three days): no wound appeared
wound appearance ([1]; ICRF-187 50 mg/kg IV at t=0): a small wound appeared
ulcer development [2]: did not develope an ulcer
Mean AUC [3, 4]: 395 mm^2 × days
Mean DWw ± SEM [3, 4]: 29.2 ± 1.1 days
Mean TTWw ± SEM [3, 4]: 7.8 ± 1.1 days
Nw/NG [3, 4]: 83%
Mean AUC [3, 5]: 57 mm^2 × days
Mean DWw ± SEM [3, 5]: 27.0 ± 0.0 days
Mean TTWw ± SEM [3, 5]: 4.0 ± 0.0 days
Nw/NG [3, 5]: 25%
reduction of the AUC ([3]; Example 3, daunorubicin 3 mg/kg sc, ICRF-187 250 mg/kg vs saline, p<0.05): 48%
reduction of the AUC ([3]; Example 3, daunorubicin 3 mg/kg sc, ICRF-187 375 mg/kg vs saline, p<0.05): 93%
reduction in AUC ([3]; Example 4, daunorubicin 1 mg/kg sc (low dose), ICRF-187 250 mg/kg IP, p<0.05): 100%
Mean AUC [3, 6]: 0 mm^2 × days
Nw/NG [3, 6]: 0%
reduction in AUC ([3]; Example 4, daunorubicin 3 mg/kg sc (high dose), ICRF-187 250 mg/kg IP, p<0.05): 75%
Mean AUC [3, 7]: 313 mm^2 × days
Mean DWw ± SEM [3, 7]: 14.0 ± 1.5 days
Mean TTWw ± SEM [3, 7]: 12.0 ± 3.5 days
Nw/NG [3, 7]: 43%
Mean AUC [3, 8]: 50 mm^2 × days
Mean DWw ± SEM [3, 8]: 16.0 ± 4.0 days
Mean TTWw ± SEM [3, 8]: 10.5 ± 3.5 days
Nw/NG [3, 8]: 22%
reduction of AUC ([3]; Example 5, daunorubicin 1 mg/kg sc, ICRF-187 250 mg/kg IP, p<0.05): 73%
Mean AUC [3, 9]: 158 mm^2 × days
Mean DWw ± SEM [3, 9]: 13.7 ± 1.7 days
Mean TTWw ± SEM [3, 9]: 9.9 ± 1.8 days
Nw/NG [3, 9]: 78%
reduction of AUC ([3]; Example 5, daunorubicin 3 mg/kg sc, ICRF-187 250 mg/kg IP, p<0.05): 83%
Mean AUC [3, 10]: 421 mm^2 × days
Mean DWw ± SEM [3, 10]: 21.0 ± 4.0 days
Mean TTWw ± SEM [3, 10]: 7.0 ± 0.6 days
Nw/NG [3, 10]: 43%
Mean AUC [3, 11]: 926 mm^2 × days
Mean DWw ± SEM [3, 11]: 24.9 ± 0.8 days
Mean TTWw ± SEM [3, 11]: 6.7 ± 0.6 days
Nw/NG [3, 11]: 100%
Mean AUC [3, 12]: 326 mm^2 × days
Mean DWw ± SEM [3, 12]: 19.6 ± 0.7 days
Mean TTWw ± SEM [3, 12]: 7.7 ± 0.5 days
Nw/NG [3, 12]: 100%
AUC reduced ([3]; Example 6, daunorubicin 3 mg/kg sc, ICRF-187 250 mg/kg IP 6 hours delay, statistically non-significant): 34%
AUC reduced ([3]; Example 6, daunorubicin 3 mg/kg sc, ICRF-187 250 mg/kg IP at t=0, p<0.05): 77%
AUC reduced ([3]; Example 6, daunorubicin 3 mg/kg sc, ICRF-187 250 mg/kg IP at t=+3 hours, p<0.05): 70%
Mean AUC [3, 13]: 403 mm^2 × days
Mean DWw ± SEM [3, 13]: 19.4 ± 2.3 days
Mean TTWw ± SEM [3, 13]: 6.9 ± 1.6 days
Nw/NG [3, 13]: 78%
Mean AUC [3, 14]: 562 mm^2 × days
Mean DWw ± SEM [3, 14]: 19.0 ± 0.9 days
Mean TTWw ± SEM [3, 14]: 9.6 ± 0.7 days
Nw/NG [3, 14]: 89%
reduction of the AUC ([3]; Example 7, daunorubicin 3 mg/kg sc, ICRF-187 250 mg/kg IP, p<0.05): 51%
AUC [3, 15]: 28 (± 22) mm^2×days
DW [3, 15]: 16.0 (± 4.0) days
FW [3, 15]: 13%
TTW [3, 15]: 10.5 (± 3.5) days
AUC [3, 16]: 112 (± 37) mm^2×days
DW [3, 16]: 18.0 (± 0.0) days
FW [3, 16]: 22%
TTW [3, 16]: 16.5 (± 0.5) days
AUC [3, 17]: 692 (± 115) mm^2×days
DW [3, 17]: 20.6 (± 0.8) days
FW [3, 17]: 88%
TTW [3, 17]: 8.4 (± 0.6) days
AUC [3, 18]: 373 (± 48) mm^2×days
DW [3, 18]: 17.4 days
FW [3, 18]: 78%
TTW [3, 18]: 9.7 days
DW [3, 19]: 17.4 (± 0.6) days
TTW [3, 19]: 9.7 (± 0.5) days
AUC [3, 20]: 420 (± 206) mm^2×days
DW [3, 20]: 21.0 (± 4.0) days
FW [3, 20]: 43%
TTW [3, 20]: 7.0 (± 0.6) days
AUC [3, 21]: 927 (± 163) mm^2×days
DW [3, 21]: 24.9 (± 0.8) days
FW [3, 21]: 100%
TTW [3, 21]: 6.7 (± 0.6) days
AUC [3, 22]: 128 (± 34) mm^2×days
DW [3, 22]: 13.3 (± 1.2) days
FW [3, 22]: 75%
TTW [3, 22]: 17.7 (± 1.0) days
AUC [3, 23]: 479 (± 141) mm^2×days
DW [3, 23]: 19.3 (± 1.3) days
FW [3, 23]: 67%
TTW [3, 23]: 9.2 (± 1.2) days
AUC [3, 24]: 57 (± 57) mm^2×days
DW [3, 24]: 23.0 (± 0.0) days
FW [3, 24]: 25%
TTW [3, 24]: 4.0 (± 0.0) days
AUC [3, 25]: 662 (± 223) mm^2×days
DW [3, 25]: 19.4 (± 1.3) days
FW [3, 25]: 89%
TTW [3, 25]: 8.1 (± 0.5) days
AUC [3, 26]: 0 mm^2×days
FW [3, 26]: 0%
prevention of lesions ([3]; daunorubicin induced lesions, ICRF-187 250 mg/kg IP three days in a row): completely prevented
protection by IP injection compared to IV administration ([3]; daunorubicin induced wounds, ICRF-187 250 mg/kg): no statistically significant difference
degree of protection, triple-treatment ([3]; daunorubicin, ICRF-187 62,5 or 125 mg/kg IP at 0, 3 and 6 hours): at least the same degree of protection as a single injection of 250 mg/kg ICRF-187 IP
protection with delayed administration ([3]; daunorubicin, ICRF-187 administered 3 hours after): no different from the protection obtained by immediate ICRF-187 administration
protection with delayed administration ([3]; daunorubicin, ICRF-187 delay 6 hours): protection was lost
treatment-related deaths ([3]; mouse, in vivo): no treatment-related deaths
reduction in AUC ([3]; pooled, daunorubicin 3 mg/kg SC, ICRF-187 125 mg/kg IP, p=0.0175 vs 250 mg/kg): 45%
mean duration of wounds reduced by [3, 27]: 35%
mean time to wounds delayed by [3, 27]: 76%
mean AUC reduced by ([3]; pooled, daunorubicin 3 mg/kg SC, single ICRF-187 250 mg/kg IP at t=0, p<0.0001): 70%
